# Test results taken from US9382254B2, “Compounds and pharmaceutical compositions thereof for the treatment of cystic fibrosis” (Galapagos NV, priority 2013, dated 2016).
# Biological target: T1, CFTR ΔF508 mutant (Homo sapiens, UniProt P13569, DEL508-508)
# T1 construct: expressed in transfected cells; host or cells: CFBE41o- (adenoviral transduction)
# Assay: YFP-halide influx assay for the CFTR-ΔF508 mutation, gluconate buffer
# Type: cell-based
# Details: CFBE41o- cells, forskolin 10.67 μM
# Description: The YFP halide influx assay measures the functionality of the cystic fibrosis Transmembrane Conductance regulator (CFTR) channels in the cystic fibrosis bronchial epithelium cell line CFBE41o-. The assay is used to evaluate the capacity of compounds to increase the open probability of existing CFTR channels in the membrane. It makes use of the observation that the yellow fluorescent protein (YFP) variant YFP H148Q, I152L has its fluorescence substantially quenched by halide ions like Cl^− and I^−. (Galietta, Haggie, & Verkman, 2001) (Nagai, et al., 2002)
# For this purpose, CFBE41o-cells are seeded in 96 well plates (6000 CFBE cells/well). One day after seeding, the CFBE cells are transduced with adenoviral vectors that direct the expression of the CFTR ΔF508 mutant and of the YFP reporter. Cells are incubated at 27° C., 5% CO2 for 24 hours so as to allow for the proper folding and migration to the membrane of the CFTR channel or treated with a CFTR modulator during 24 hours at 37° C.
# The I^−-induced quenching of fluorescence is recorded immediately after injection of I^− for 7 seconds. The capacity of a compound to increase the channel opening is directly correlated with the decrease in fluorescence, and is expressed as (1-(fluorescence after 7 seconds (F)/fluorescence before injection (F0))) and an EC50 can be derived from a (1-F/F0) vs compound concentration plot.
# T1 sequence (P13569 with tags, fused parts or gaps DEL508-508): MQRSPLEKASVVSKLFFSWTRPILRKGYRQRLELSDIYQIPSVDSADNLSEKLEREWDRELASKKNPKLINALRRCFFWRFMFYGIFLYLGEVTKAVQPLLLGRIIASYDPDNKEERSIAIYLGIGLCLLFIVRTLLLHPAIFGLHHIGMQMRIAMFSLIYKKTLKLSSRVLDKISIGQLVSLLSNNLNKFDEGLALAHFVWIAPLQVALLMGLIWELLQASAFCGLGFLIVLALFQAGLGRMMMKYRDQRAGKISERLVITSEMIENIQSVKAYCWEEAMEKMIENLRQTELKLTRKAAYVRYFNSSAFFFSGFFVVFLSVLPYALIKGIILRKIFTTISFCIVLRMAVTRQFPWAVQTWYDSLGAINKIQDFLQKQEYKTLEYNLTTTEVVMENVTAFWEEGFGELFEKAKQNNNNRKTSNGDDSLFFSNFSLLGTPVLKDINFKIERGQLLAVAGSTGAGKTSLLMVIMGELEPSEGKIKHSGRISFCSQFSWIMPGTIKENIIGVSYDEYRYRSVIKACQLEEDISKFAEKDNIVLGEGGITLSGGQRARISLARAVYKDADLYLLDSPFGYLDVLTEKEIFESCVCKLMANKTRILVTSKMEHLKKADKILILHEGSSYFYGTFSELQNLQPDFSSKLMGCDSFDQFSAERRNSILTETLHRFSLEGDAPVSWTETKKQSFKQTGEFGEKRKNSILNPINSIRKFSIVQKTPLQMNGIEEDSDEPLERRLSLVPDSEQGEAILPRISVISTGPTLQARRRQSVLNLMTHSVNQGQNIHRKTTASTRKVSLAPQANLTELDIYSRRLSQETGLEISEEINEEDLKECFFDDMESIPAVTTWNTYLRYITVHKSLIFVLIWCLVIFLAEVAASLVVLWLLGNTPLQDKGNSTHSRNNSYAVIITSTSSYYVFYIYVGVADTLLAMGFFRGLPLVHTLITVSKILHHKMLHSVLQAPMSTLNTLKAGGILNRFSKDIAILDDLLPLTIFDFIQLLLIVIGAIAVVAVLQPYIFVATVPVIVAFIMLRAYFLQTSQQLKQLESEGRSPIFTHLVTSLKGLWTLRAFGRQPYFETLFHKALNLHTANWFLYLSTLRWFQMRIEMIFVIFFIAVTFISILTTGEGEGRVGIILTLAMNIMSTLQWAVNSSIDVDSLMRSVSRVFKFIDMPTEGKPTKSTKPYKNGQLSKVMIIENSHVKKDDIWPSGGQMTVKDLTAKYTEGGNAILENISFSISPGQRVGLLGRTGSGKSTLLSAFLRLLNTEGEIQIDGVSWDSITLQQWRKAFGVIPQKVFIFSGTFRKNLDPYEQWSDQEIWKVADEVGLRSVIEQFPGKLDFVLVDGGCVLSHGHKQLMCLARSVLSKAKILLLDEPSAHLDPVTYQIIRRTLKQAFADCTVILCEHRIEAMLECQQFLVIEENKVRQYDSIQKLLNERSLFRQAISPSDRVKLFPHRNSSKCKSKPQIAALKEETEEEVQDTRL
row,EC50 [nM],SMILES
1,910,"Cn1ccc(C(=O)Nc2sc(S(=O)(=O)N3CCCCC3)cc2C(N)=O)n1 [Compound 30, N-(3-carbamoyl-5-(piperidin-1-ylsulfonyl)thiophen-2-yl)-1-methyl-1H-pyrazole-3-carboxamide]"
2,9840,"NC(=O)c1cc(S(=O)(=O)N2CCCCC2)sc1NC(=O)c1cnn2cccnc12 [Compound 41, N-(3-carbamoyl-5-(piperidin-1-ylsulfonyl)thiophen-2-yl)pyrazolo[1,5-a]pyrimidine-3-carboxamide]"
3,2370,"CN(C)C1CCN(S(=O)(=O)c2cc(C(N)=O)c(NC(=O)c3ccccc3F)s2)CC1 [Compound 174, 5-(4-(dimethylamino)piperidin-1-ylsulfonyl)-2-(2-fluorobenzamido) thiophene-3-carboxamide]"
4,198,"CN(CC(F)F)S(=O)(=O)c1cc(C(N)=O)c(NC(=O)c2ccccc2F)s1 [Compound 108, 5-(N-(2,2-difluoroethyl)-N-methylsulfamoyl)-2-(2-fluorobenzamido) thiophene-3-carboxamide]"
5,1570,"CC(C)(C)c1ccc(C(=O)Nc2sc(S(=O)(=O)N3CCC(F)(F)CC3)cc2C(N)=O)cc1 [Compound 65, 2-(4-tert-butylbenzamido)-5-(4,4-difluoropiperidin-1-ylsulfonyl)thiophene-3-carboxamide]"
6,503,"Cc1ccc(CN(C)S(=O)(=O)c2cc(C(N)=O)c(NC(=O)c3ccccc3F)s2)cc1 [Compound 124, 2-(2-fluorobenzamido)-5-(N-methyl-N-(4-methylbenzyl)sulfamoyl) thiophene-3-carboxamide]"
7,2100,"NC(=O)c1cc(S(=O)(=O)N2CC3(COC3)C2)sc1NC(=O)c1ccccc1F [Compound 188, 5-(2-oxa-6-azaspiro[3.3]heptan-6-ylsulfonyl)-2-(2-fluorobenzamido) thiophene-3-carboxamide]"
8,1260,"NC(=O)c1cc(S(=O)(=O)N2CCCCC2)sc1NC(=O)c1cccc(-n2cccn2)c1 [Compound 53, 2-(3-(1H-pyrazol-1-yl)benzamido)-5-(piperidin-1-ylsulfonyl)thiophene-3-carboxamide]"
9,944,"Cc1ccc(C(=O)Nc2sc(S(=O)(=O)N3CCN(C)CC3)cc2C(N)=O)s1 [Compound 5, N-(3-carbamoyl-5-(4-methylpiperazin-1-ylsulfonyl)thiophen-2-yl)-5-methylthiophene-2-carboxamide]"
10,1080,"Cc1ccc(C(=O)Nc2sc(S(=O)(=O)N(C)c3ccccc3)cc2C(N)=O)s1 [Compound 7, N-(3-carbamoyl-5-(N-methyl-N-phenylsulfamoyl)thiophen-2-yl)-5-methylthiophen-2-carboxamide]"
11,313,"NC(=O)c1cc(S(=O)(=O)N2CCOCC2)sc1NC(=O)c1ccc(F)cc1F [Compound 138, 2-(2,4-difluorobenzamido)-5-(morpholinosulfonyl) thiophene-3-carboxamide]"
12,603,"NC(=O)c1cc(S(=O)(=O)N2CCCCC2)sc1NC(=O)c1cc2c(s1)CCCC2 [Compound 9, N-(3-carbamoyl-5-(piperidin-1-ylsulfonyl)thiophen-2-yl)-4,5,6,7-tetrahydrobenzo[b] thiophene-2-carboxamide]"
13,270,"COCCCN(C)S(=O)(=O)c1cc(C(N)=O)c(NC(=O)c2ccccc2F)s1 [Compound 186, 2-(2-fluorobenzamido)-5-(N-(3-methoxypropyl)-N-methylsulfamoyl)thiophene-3-carboxamide]"
14,483,"NC(=O)c1cc(S(=O)(=O)N2CCCCC2)sc1NC(=O)c1cc2c(F)cccc2s1 [Compound 2, N-(3-carbamoyl-5-(piperidin-1-ylsulfonyl)thiophen-2-yl)-4-fluorobenzo[b] thiophene-2-carboxamide]"
15,574,"NC(=O)c1cc(S(=O)(=O)N2CCCCC2)sc1NC(=O)CCc1ccccc1 [Compound 40, 2-(3-phenylpropanamido)-5-(piperidin-1-ylsulfonyl) thiophene-3-carboxamide]"
16,797,"CN(Cc1ccccc1)S(=O)(=O)c1cc(C(N)=O)c(NC(=O)C2(c3ccc4c(c3)OC(F)(F)O4)CC2)s1 [Compound 71, 5-(N-benzyl-N-methylsulfamoyl)-2-(1-(2,2-difluorobenzo[d][1,3]dioxol-5-yl)cyclopropanecarboxamido) thiophene-3-carboxamide]"
17,218,"COCCCN(C)S(=O)(=O)c1cc(C(N)=O)c(NC(=O)c2cc[nH]n2)s1 [Compound 204, N-(3-carbamoyl-5-(N-(3-methoxypropyl)-N-methylsulfamoyl)thiophen-2-yl)-1H-pyrazole-3-carboxamide]"
18,696,"NC(=O)c1cc(S(=O)(=O)N2CCCCC2)sc1NC(=O)C1CC(F)(F)C1 [Compound 44, 2-(3,3-difluorocyclobutanecarboxamido)-5-(piperidin-1-ylsulfonyl) thiophene-3-carboxamide]"

row,EC50 [nM],SMILES
1,153,"NC(=O)c1cc(S(=O)(=O)N2CCC(F)(F)CC2)sc1NC(=O)c1ccccc1F [Compound 66, 5-(4,4-difluoropiperidin-1-ylsulfonyl)-2-(2-fluorobenzamido)thiophene-3-carboxamide]"
2,3330,"NC(=O)c1cc(S(=O)(=O)N2CCOCC2)sc1NC(=O)c1ncccc1F [Compound 77, N-(3-carbamoyl-5-(morpholinosulfonyl)thiophen-2-yl)-3-fluoropicolinamide]"
3,162,"CN(Cc1ccccc1)S(=O)(=O)c1cc(C(N)=O)c(NC(=O)C(C)(C)C)s1 [Compound 88, 5-(N-benzyl-N-methylsulfamoyl)-2-pivalamidothiophene-3-carboxamide]"
4,3330,"NC(=O)c1cc(S(=O)(=O)N2CCOCC2)sc1NC(=O)c1cocn1 [Compound 94, N-(3-carbamoyl-5-(morpholinosulfonyl)thiophen-2-yl) oxazole-4-carboxamide]"
5,272,"CC(C)(C)C(=O)Nc1sc(S(=O)(=O)N2CCCCC2)cc1C(N)=O [Compound 29, 5-(piperidin-1-ylsulfonyl)-2-pivalamidothiophene-3-carboxamide]"
6,921,"COc1cc(Nc2ccccc2)ccc1C(=O)Nc1sc(S(=O)(=O)N2CCOCC2)cc1C(N)=O [Compound 70, 2-(2-methoxy-4-(phenylamino)benzamido)-5-(morpholinosulfonyl) thiophene-3-carboxamide]"
7,1940,"NC(=O)c1cc(S(=O)(=O)N2CCOCC2)sc1NC(=O)c1ccco1 [Compound 99, N-(3-carbamoyl-5-(morpholinosulfonyl)thiophen-2-yl)furan-2-carboxamide]"
8,263,"NC(=O)c1cc(S(=O)(=O)N2CCOCC2)sc1NC(=O)c1cccc(O)c1 [Compound 137, 2-(3-hydroxybenzamido)-5-(morpholinosulfonyl) thiphene-3-carboxamide]"
9,251,"NC(=O)c1cc(S(=O)(=O)N2CCOCC2)sc1NC(=O)c1cc[nH]n1 [Compound 63, N-(3-carbamoyl-5-(morpholinosulfonyl)thiophen-2-yl)-1H-pyrazole-3-carboxamide]"
10,3330,"N#CC1(C(=O)Nc2sc(S(=O)(=O)N3CCCCC3)cc2C(N)=O)CC1 [Compound 58, 2-(1-cyanocyclopropanecarboxamido)-5-(piperidin-1-ylsulfonyl) thiophene-3-carboxamide]"
11,204,"NC(=O)c1cc(S(=O)(=O)N2CCCCC2)sc1NC(=O)c1ccccc1C1CC1 [Compound 52, 2-(2-cyclopropylbenzamido)-5-(piperidin-1-ylsulfonyl) thiophene-3-carboxamide]"
12,365,"NC(=O)c1cc(S(=O)(=O)N2C[C@@H]3C[C@H]2CO3)sc1NC(=O)c1ccccc1F [Compound 144, 5-((1S,4S)-2-oxa-5-azabicyclo[2.2.1]heptan-5-ylsulfonyl)-2-(2-fluorobenzamido) thiophene-3-carboxamide]"
13,235,"NC(=O)c1cc(S(=O)(=O)c2cccc(F)c2)sc1NC(=O)c1ccccc1F [Compound 115, 2-(2-fluorobenzamido)-5-(3-fluorophenylsulfonyl) thiophene-3-carboxamide]"
14,357,"NC(=O)c1cc(S(=O)(=O)N2Cc3ccccc3C2)sc1NC(=O)c1ccccc1F [Compound 151, 2-(2-fluorobenzamido)-5-(isoindolin-2-ylsulfonyl)thiophene-3-carboxamide]"
15,842,"CC(C)(C)c1ccc(C(=O)Nc2sc(S(=O)(=O)N3CCOCC3)cc2C(N)=O)cc1 [Compound 49, 2-(4-tert-butylbenzamido)-5-(morpholinosulfonyl) thiophene-3-carboxamide]"
16,383,"COc1ccc(CS(=O)(=O)c2cc(C(N)=O)c(NC(=O)c3ccccc3F)s2)cc1 [Compound 130, 2-(2-fluorobenzamido)-5-(4-methoxybenzylsulfonyl) thiophene-3-carboxamide]"
17,> 1000,"COc1cc(C)ccc1C(=O)Nc1sc(S(=O)(=O)N2CCOCC2)cc1C(N)=O [Compound 135, 2-(2-methoxy-4-methylbenzamido)-5-(morpholinosulfonyl) thiophene-3-carboxamide]"
18,815,"Cc1cc(C(=O)Nc2sc(S(=O)(=O)N3CCOCC3)cc2C(N)=O)n[nH]1 [Compound 166, N-(3-carbamoyl-5-(morpholinosulfonyl)thiophen-2-yl)-5-methyl-1H-pyrazole-3-carboxamide]"
